From patent US20250059182A1, “SOS1 INHIBITORS” (Mirati Therapeutics, Inc., priority 2021, published 2025) come the findings set out here.

The structures appear in SMILES notation. Structures can show the parent of a compound that is named as a salt. Where two headings read alike, the source gives them in different places.

For one experiment, the system named is pERK in MKN1 cells. Put plainly: pERK inhibition, In-Cell Western (LI-COR Odyssey), MKN1 cells. The experiment is classed as cell-based. As to conditions: Homo sapiens. The essentials: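 IC50 was fitted from % pERK inhibition, calculated as the GAPDH-normalised pERK signal of each well divided by the vehicle mean. Signal was imaged at 700 and 800 nm after fixation, methanol permeabilisation and dual antibody staining. Before fixation, MKN1 cells had received compound for about 0.5–1 h at 37 °C, top concentration 10 µM, nine 3-fold dilutions.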

Experiment [1] deals with T1, recombinant human SOS1 polypeptide (amino acids 560-1049) (Homo sapiens, UniProt Q07889).
T1 construct: corresponding to amino acids 560-1049, expressed in E. Coli; made in house; host or cells: E. coli
T1 sequence (Q07889 560-1049): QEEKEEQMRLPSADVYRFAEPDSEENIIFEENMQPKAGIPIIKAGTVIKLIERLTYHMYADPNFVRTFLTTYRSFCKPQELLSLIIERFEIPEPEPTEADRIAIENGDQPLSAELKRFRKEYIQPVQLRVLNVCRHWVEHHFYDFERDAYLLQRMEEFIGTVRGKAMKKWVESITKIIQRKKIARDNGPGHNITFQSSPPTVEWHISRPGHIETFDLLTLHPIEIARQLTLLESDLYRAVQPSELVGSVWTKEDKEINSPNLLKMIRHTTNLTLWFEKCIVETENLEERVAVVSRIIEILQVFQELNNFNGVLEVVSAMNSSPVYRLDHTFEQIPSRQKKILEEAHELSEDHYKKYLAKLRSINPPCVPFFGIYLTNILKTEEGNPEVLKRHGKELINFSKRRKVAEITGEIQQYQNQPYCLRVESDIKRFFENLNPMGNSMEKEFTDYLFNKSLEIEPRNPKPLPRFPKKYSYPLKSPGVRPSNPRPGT
Nature of the experiment: HTRF displacement assay: inhibition of labeled tracer binding to SOS1. In general terms: Time-resolved FRET reads energy transfer from a long-lived donor to a nearby acceptor.

The mark [2] stands for this setting: MKN-1, Table B, MKN1 or H358 cells (table does not say which), 0.5-1 hour incubation, read-out: IC50 (nM), pERK inhibition.
Setting [3] is: Table A, Morrison equation for competitive binding.
The mark [4] stands for this setting: MKN-1, Table B1, MKN1 or H358 cells (table does not say which), 0.5-1 hour incubation, read-out: IC50 (nM), pERK inhibition.
Setting [5] is: Table A1, Morrison equation for competitive binding.

For orientation: IC50 means the concentration that gives 50% inhibition. In general, Ki refers to a measure of affinity in units of concentration, obtained from inhibition or displacement. As for `COCCN(C)c1cc2c(N[C@H](C)c3cccc(C#N)c3C)nnc(C)c2cc1F` [Example 4-17, (R)-3-(1-((6-fluoro-7-((2-methoxyethyl)(methyl)amino)-4-methylphthalazin-1-yl)amino)ethyl)-2-methylbenzonitrile], in the experiment on pERK in MKN1 cells (setting [2]), the IC50 worked out at 814 nM. Besides, the Ki in experiment [1] (setting [3]) turned out to be 9.16 nM.

As to `COC1(c2cc3c(N[C@H](C)c4cccc(C#N)c4C)nnc(C)c3cc2F)CCN(C(C)=O)CC1` [Example P-159, (R)-3-(1-((7-(1-acetyl-4-methoxypiperidin-4-yl)-6-fluoro-4-methylphthalazin-1-yl)amino)ethyl)-2-methylbenzonitrile], in the experiment on pERK in MKN1 cells (setting [4]), the IC50 stood at 100 nM. Further, in experiment [1] (setting [5]), the Ki was found to be 2.2 nM.

In the case of `Cc1c(C#N)cccc1[C@@H](C)Nc1nnc(C)c2cnc(N(C)C[C@@H]3CCCN3C)cc12` [Example 1-57, 2-methyl-3-((R)-1-((4-methyl-7-(methyl(((S)-1-methylpyrrolidin-2-yl)methyl)amino)pyrido[3,4-d]pyridazin-1-yl)amino)ethyl)benzonitrile], in the experiment with pERK in MKN1 cells (setting [2]), the IC50 is 39.2 nM. Further, the Ki in experiment [1] (setting [3]) came out at 1.59 nM.

On to `Cc1c(C#N)cccc1[C@@H](C)Nc1nnc(C)c2cc(F)c(N3C[C@H]4C[C@@H]3CO4)cc12` [Example 4-15, 3-((R)-1-((7-((1R,4R)-2-oxa-5-azabicyclo[2.2.1]heptan-5-yl)-6-fluoro-4-methylphthalazin-1-yl)amino)ethyl)-2-methylbenzonitrile], for which, in the experiment with pERK in MKN1 cells (setting [2]), the IC50 came to 37.8 nM. For the same compound, the Ki in experiment [1] (setting [3]) was 4.66 nM.

Consider `Cc1c(C#N)cccc1[C@@H](C)Nc1nnc(C)c2cnc(N3CCN(C(=O)[C@H]4CCCN4)CC3)cc12` [Example 2-3, 3-((R)-1-((7-(4-(D-prolyl)piperazin-1-yl)-4-methylpyrido[3,4-d]pyridazin-1-yl)amino)ethyl)-2-methylbenzonitrile], for which the IC50 in the experiment with pERK in MKN1 cells (setting [2]) was 656 nM. Also, the Ki in experiment [1] (setting [3]) stood at 0.32 nM.

Regarding `CCOCCN1CC2(C1)CN(c1cc3c(N[C@H](C)c4cccc(C#N)c4C)nnc(C)c3cn1)C2` [Example 1-60, (R)-3-(1-((7-(6-(2-ethoxyethyl)-2,6-diazaspiro[3.3]heptan-2-yl)-4-methylpyrido[3,4-d]pyridazin-1-yl)amino)ethyl)-2-methylbenzonitrile], the IC50 in the experiment with pERK in MKN1 cells (setting [2]) came to 39.9 nM. Further, the inhibition constant Ki in experiment [1] (setting [3]) came to 0.93 nM.

`Cc1c(C#N)cccc1[C@@H](C)Nc1nnc(C)c2ccc(N3CCC34CN(C)C4)cc12` [Example P-235, (R)-2-methyl-3-(1-((4-methyl-7-(6-methyl-1,6-diazaspiro[3.3]heptan-1-yl)phthalazin-1-yl)amino)ethyl)benzonitrile formic acid salt]: in the experiment with pERK in MKN1 cells (MKN-1, read-out: IC50 (nM), pERK inhibition), the IC50 came out at 95.8 nM. For the same compound, in experiment [1] (setting [5]), the Ki was 0.618 nM.

As to `Cc1c(C#N)cccc1[C@@H](C)Nc1nnc(C)c2cnc(N3CC[C@@H]4[C@H]3CN4C)cc12` (single isomer, unassigned) [Example 6-10], the IC50 in the experiment with pERK in MKN1 cells (setting [2]) is 44.4 nM. Besides, the Ki in experiment [1] (setting [3]) turned out to be 0.872 nM.

Take `Cc1nnc(N[C@H](C)c2cccc(C(F)(F)F)c2F)c2cc(N3CC4(CNC4)C3)ncc12` [Example 1-87, (R)-N-(1-(2-fluoro-3-(trifluoromethyl)phenyl)ethyl)-4-methyl-7-(2,6-diazaspiro[3.3]heptan-2-yl)pyrido[3,4-d]pyridazin-1-amine]: the IC50 in the experiment with pERK in MKN1 cells (setting [2]) turned out to be 273 nM. Besides, in experiment [1] (setting [3]), the Ki is 0.524 nM.

As to `Cc1nnc(N[C@H](C)c2cccc(C(F)F)c2F)c2cc(N3CCC34CN(C)C4)ncc12` [Example P-238, (R)-N-(1-(3-(difluoromethyl)-2-fluorophenyl)ethyl)-4-methyl-7-(6-methyl-1,6-diazaspiro[3.3]heptan-1-yl)pyrido[3,4-d]pyridazin-1-amine], the IC50 with pERK in MKN1 cells (setting [4]) is 17.7 nM. Besides, in experiment [1] (setting [5]), the Ki is 0.4 nM.

`Cc1nnc(N[C@H](C)c2cccc3c2OCC3(F)F)c2cc(N3CCOCC3)ncc12` [Example 1-108, (R)-N-(1-(3,3-difluoro-2,3-dihydrobenzofuran-7-yl)ethyl)-4-methyl-7-morpholinopyrido[3,4-d]pyridazin-1-amine]: the IC50 with pERK in MKN1 cells (setting [2]) turned out to be 35.7 nM. Besides, the Ki in experiment [1] (setting [3]) is 2.31 nM.

As to `CCN(CC)C1(C)CN(c2cc3c(N[C@H](C)c4cccc(C#N)c4C)nnc(C)c3cn2)C1` [Example 1-2, (R)-3-(1-((7-(3-(diethylamino)-3-methylazetidin-1-yl)-4-methylpyrido[3,4-d]pyridazin-1-yl)amino)ethyl)-2-methylbenzonitrile], the IC50 in the experiment with pERK in MKN1 cells (setting [2]) came out at 126 nM. In addition, the Ki in experiment [1] (setting [3]) stood at 2.22 nM.

On to `Cc1c(C#N)cccc1[C@@H](C)Nc1nnc(C)c2cnc(N3CCS(=N)(=O)CC3)cc12` [Example 1-84, (R)-3-(1-((7-(1-imino-1-oxido-thiomorpholino)-4-methylpyrido[3,4-d]pyridazin-1-yl)amino)ethyl)-2-methylbenzonitrile], for which the IC50 in the experiment with pERK in MKN1 cells (setting [2]) was found to be 2730 nM. The Ki in experiment [1] (setting [3]) amounted to 2.34 nM.

For `Cc1nnc(N[C@H](C)c2cccc(C(F)(F)F)c2F)c2cc(N3CCCC34CN(C)C4)ncc12` [Example 1-21, (R)-N-(1-(2-fluoro-3-(trifluoromethyl)phenyl)ethyl)-4-methyl-7-(2-methyl-2,5-diazaspiro[3.4]octan-5-yl)pyrido[3,4-d]pyridazin-1-amine], the IC50 in the experiment on pERK in MKN1 cells (setting [2]) was found to be 25.5 nM. The Ki in experiment [1] (setting [3]) worked out at 0.249 nM.

Consider `Cc1nnc(N[C@H](C)c2cccc(C(F)(F)F)c2F)c2cc(N3CCOCC3)c(C#N)cc12` [Example 6-18, (R)-1-((1-(2-fluoro-3-(trifluoromethyl)phenyl)ethyl)amino)-4-methyl-7-morpholinophthalazine-6-carbonitrile], for which the IC50 in the experiment with pERK in MKN1 cells (setting [2]) stood at 311 nM. For the same compound, the Ki in experiment [1] (setting [3]) was found to be 7.06 nM.

`Cc1c([C@@H](C)Nc2nnc(C)c3cc(F)c(N4CCOCC4)cc23)cc(N)nc1C(F)(F)F` [Example 4-22, (R)-N-(1-(6-amino-3-methyl-2-(trifluoromethyl)pyridin-4-yl)ethyl)-6-fluoro-4-methyl-7-morpholinophthalazin-1-amine]: the IC50 in the experiment with pERK in MKN1 cells (setting [2]) was found to be 49 nM. In experiment [1] (setting [3]), the Ki came out at 22 nM.

`Cc1nnc(N[C@H](C)c2cccc(C(C)(F)F)c2F)c2cc(-c3ccc(=O)n(C)c3)ncc12` [Example P-175, (R)-5-(1-((1-(3-(1,1-difluoroethyl)-2-fluorophenyl)ethyl)amino)-4-methylpyrido[3,4-d]pyridazin-7-yl)-1-methylpyridin-2(1H)-one]: the IC50 in the experiment with pERK in MKN1 cells (setting [4]) was 415 nM. Also, the Ki in experiment [1] (setting [5]) stood at 15.4 nM.

As for `Cc1nnc(N[C@H](C)c2cccc(C(C)(F)F)c2F)c2cc(N(C)[C@@H]3CCN(C)C3)ncc12` [Example P-199, N1-((R)-1-(3-(1,1-difluoroethyl)-2-fluorophenyl)ethyl)-N7,4-dimethyl-N7-((R)-1-methylpyrrolidin-3-yl)pyrido[3,4-d]pyridazine-1,7-diamine], the IC50 with pERK in MKN1 cells (setting [4]) turned out to be 59.1 nM. For the same compound, the Ki in experiment [1] (setting [5]) is 0.321 nM.

As for `Cc1nnc(N[C@H](C)c2cccc(C(F)(F)F)c2F)c2cc(N(C)[C@H]3CCNC3)ncc12` [Example 1-65, N^1-((R)-1-(2-fluoro-3-(trifluoromethyl)phenyl)ethyl)-N^7,4-dimethyl-N^7-((S)-pyrrolidin-3-yl)pyrido[3,4-d]pyridazine-1,7-diamine], the IC50 with pERK in MKN1 cells (setting [2]) was found to be 49.7 nM. The Ki in experiment [1] (setting [3]) was found to be 0.505 nM.

As for `Cc1c(C#N)cccc1[C@@H](C)Nc1nnc(C)c2cnc(N3CC[C@@H](N)C3)cc12` [Example 1-8, 3-((R)-1-((7-((R)-3-aminopyrrolidin-1-yl)-4-methylpyrido[3,4-d]pyridazin-1-yl)amino)ethyl)-2-methylbenzonitrile], the IC50 in the experiment on pERK in MKN1 cells (setting [2]) stood at 274 nM. The Ki in experiment [1] (setting [3]) was 1.54 nM.
